Data taken from US11844846B2, “Styrylbenzothiazole derivatives and uses in imaging methods” (Emory University, priority 2018, dated 2023).
Several values for one entry are separate records, joined by “and”; a condition that tells them apart may be missing. Equal entries are not always repeated. Entries after “also recorded” stand apart in the source; their conditions may differ. Where two headings read alike, the source gives them in different places.

Experiments:
Aβ PFFs [1] = molecular target: T1, Aβ PFFs (Homo sapiens, UniProt P05067); assay: fluorescence spectroscopy titration with Aβ PFFs; format: binding; conditions: fluorescence spectroscopy titration; read-out: binding constant Kd for Aβ PFFs
T1 construct: counter-screening with Tau and Aβ PFFs
Description: (§1) A fluorescent titration assay was conducted. The fluorescent emission intensities were determined with 0.08 μM of various fibrils in the presence of 5 μM of the small molecules.
(§2) To further investigate the selected compounds binding activities with α-Syn PFFs, fluorescence spectroscopy titrations were conducted to quantitatively measure compounds emission intensity when interacting with different concentrations of α-Syn PFFs. The UV spectrum of each compound was determined and selected for the optimal wavelength to conduct the fluorescence spectroscopic studies.

[2] = test system: senile plaques or NFT in AD; assay: ex vivo screening on AD patient brain sections; format: binding, human
Text: (§3) Ex vivo screening was extended into human DLB, MSA and AD patient samples. […] Since there are detectable α-Syn aggregates in AD patient brains, these compounds colocalized with p-S129 positive α-Syn inclusions.
(§4) The ex vivo screening was extended into human DLB, MSA and AD patient samples. Neurodegenerative disease of DLB (dementia with Lewy Bodies) and MSA belongs to synucleinopathies with well-defined Lewy bodies.

Tau PFFs [3] = molecular target: T2, Tau PFFs (Homo sapiens, UniProt P10636); assay: fluorescence spectroscopy titration with Tau PFFs; format: binding; conditions: fluorescence spectroscopy titration; read-out: binding constant Kd for Tau PFFs
Description: as §1, §2

[4] = molecular target: T3, senile plaques in 5×FAD and 3×Tg mice brain sections (Homo sapiens, UniProt P05067); assay: staining of mouse brain sections with senile plaques; format: binding
T3 construct: Aβ-enriched senile plaques; from tissue; host or cells: brain sections of 5×FAD and 3×Tg mice

[5] = test system: NFT in Tau P301S and 3×Tg mice brain sections; assay: staining of mouse brain sections with NFT; format: binding
Description: (§5) To further explore whether the positive compounds selectively bind to the Lewy bodies, α-Syn A53T patient-derived mutant virus injected WT mice brain slices were employed. These mice display extensive Lewy bodies in the SN.
(§6) To further explore whether the positive compounds selectively bind to the Lewy bodies, a α-Syn A53T patient-derived mutant virus was injected into WT mice brain slices. These mice display extensive Lewy bodies in the Substantial nigra (SN). Moreover, P301S mice expressed neurofibrillary tangles (NFT). The Lewy bodies were labeled with p-α-Syn S129 antibody and the positive aggregates were also labeled with the fluorescent signals from the small molecules. […] However, it was worth noting that almost none of the tested compounds were reactive with NFT.

[6] = test system: neurons with Aβ or Tau aggregates; assay: neuronal Aβ and Tau aggregation models, fluorescent microscopy; format: cell-based; conditions: primary cultured neurons
Text: (§7) A series of derivatives were synthesized by including an amino group and a methyl group on benzothiazole to increase the brain permeability and fluorescent signals. The derivatives were subsequently subjected to α-Syn PFFs binding assay and counter-screening with Tau and Aβ PFFs. […] These compounds were screened on the neuronal α-Syn, Tau and Aβ aggregation model for the binding selectivity. Primary cultured neurons were infected with AAV-α-Syn, AAV-Tau FL for 7 days, then treated with α-Syn, Tau or Aβ PFFs. In a few days, the positive compounds were added in the primary neurons with indicated aggregates and analyzed under fluorescent microscopy.
(§8) Primary cultured neurons were infected with AAV-α-Syn, AAV-Tau FL or AAV-APP fragment virus for 7 days, and then treated with α-Syn, Tau or Aβ PFFs by following the described protocols (Volpicelli-Daley et al., 2014). In a few days, the positive compounds were added in the primary neurons with indicated aggregation.

α-Syn PFFs = α-Syn PFFs (Homo sapiens, UniProt P37840); assay: fluorescence spectroscopy titration with α-Syn PFFs; format: binding; conditions: for binding to α-Syn PFFs by fluorescent emission intensity: 0.08 μM fibrils, 5 μM small molecule, result in words
Description: as §1, §2

α-Syn aggregated neurons = assay: neuronal α-Syn aggregation model, fluorescent microscopy; format: cell-based; conditions: primary cultured neurons, AAV-α-Syn plus α-Syn PFFs
Text: as §7, §8

[7] = plasma-brain ratio study / in vivo PK of EU compounds; set-up: species or system mouse; conditions: for B/P: single animals; for brain permeability: i.v.
Description: To address whether the selected compounds penetrate the brain, a plasma-brain ratio study was performed with EU04-03A, EU05-02A and EU05-02B.
To test whether these compounds are brain permeable in vivo, in vivo PK profiling was conducted to determine brain exposure.

[8] = molecular target: T4, LBs and LNs in DLB and MSA patient brains (Homo sapiens, UniProt P37840); assay: ex vivo screening on DLB and MSA patient brain sections; format: binding
T4 construct: from tissue; host or cells: brain sections of DLB and MSA patients
Text: as §3, §4

[9] = molecular target: T5, Lewy bodies in α-Syn A53T virus injected WT mice brain slices (Homo sapiens, UniProt P37840, A53T); assay: staining of mouse brain slices with Lewy bodies; format: binding
T5 construct: from tissue; host or cells: brain (substantia nigra) of wild-type mice injected with α-Syn A53T virus
Description: as §5, §6

[10] = molecular target: pre-formed fibrils (PFFs) of α-Synuclein (Homo sapiens, UniProt P37840); assay: in vitro binding assay with α-Syn PFFs; conditions: fibrils binding assay, result in words
Text: (§9) The general strategy that was employed to screen the candidate Lewy body PET agents is summarized as follows: (a) To perform in vitro binding assay with Pre-formed fibrils (PFFs) of α-Syn and counter-screening with Tau and Aβ PFFs; (b) To test the positive compounds in the neuronal models with aggregated α-Syn, Tau or […]; (c) To screen with the brain slides from α-Syn mutant A53T virus injected WT mice, and counter-screen with aged 3×Tg (containing both senile plaques and NFT), and aged Tau P301S (NFT) brain sections; (d) to screen the patient brain sections from DLB and MSA against AD; (e) To determine the binding kinetics between α-Syn PFFs and positive hits; (f) To determine the candidates in vivo brain/plasma (B/P) ratios and the brain permeability; (g) To determine the in vivo PET images in α-Syn A53T with candidates and compare its images in 5XFAD and Tau P301S mice.
(§10) To perform in vitro binding assay, commercial compounds were screened (See FIG. 7B).
as §7
To perform in vitro binding assay, compounds were screened. […] An amino group and a methyl group in the benzothazole were added to increase its brain permeability and fluorescent signals. […] The synthesized derivatives were subsequently subjected to the α-Syn PFFs binding and counter-screen of Tau and Aβ PFFs as described above.

Tau PFFs [11] = molecular target: T2, Tau PFFs; assay: counter-screening with Tau PFFs; format: binding; conditions: result in words
Text: as §9, §10
(§11) A series of derivatives were synthesized by including an amino group and a methyl group on benzothiazole to increase the brain permeability and fluorescent signals. The derivatives were subsequently subjected to α-Syn PFFs binding assay and counter-screening with Tau and Aβ PFFs. […] In a few days, the positive compounds were added in the primary neurons with indicated aggregates and analyzed under fluorescent microscopy. […]

Aβ PFFs [12] = molecular target: T1, Aβ PFFs; assay: counter-screening with Aβ PFFs; format: binding; conditions: result in words
Text: as §9, §10, §11

[13] = in vivo PK study of compound 13 decaying into F0502B; conditions: after injection of compound 13, 15 min to 90 min

T2 sequence (P10636 whole entry): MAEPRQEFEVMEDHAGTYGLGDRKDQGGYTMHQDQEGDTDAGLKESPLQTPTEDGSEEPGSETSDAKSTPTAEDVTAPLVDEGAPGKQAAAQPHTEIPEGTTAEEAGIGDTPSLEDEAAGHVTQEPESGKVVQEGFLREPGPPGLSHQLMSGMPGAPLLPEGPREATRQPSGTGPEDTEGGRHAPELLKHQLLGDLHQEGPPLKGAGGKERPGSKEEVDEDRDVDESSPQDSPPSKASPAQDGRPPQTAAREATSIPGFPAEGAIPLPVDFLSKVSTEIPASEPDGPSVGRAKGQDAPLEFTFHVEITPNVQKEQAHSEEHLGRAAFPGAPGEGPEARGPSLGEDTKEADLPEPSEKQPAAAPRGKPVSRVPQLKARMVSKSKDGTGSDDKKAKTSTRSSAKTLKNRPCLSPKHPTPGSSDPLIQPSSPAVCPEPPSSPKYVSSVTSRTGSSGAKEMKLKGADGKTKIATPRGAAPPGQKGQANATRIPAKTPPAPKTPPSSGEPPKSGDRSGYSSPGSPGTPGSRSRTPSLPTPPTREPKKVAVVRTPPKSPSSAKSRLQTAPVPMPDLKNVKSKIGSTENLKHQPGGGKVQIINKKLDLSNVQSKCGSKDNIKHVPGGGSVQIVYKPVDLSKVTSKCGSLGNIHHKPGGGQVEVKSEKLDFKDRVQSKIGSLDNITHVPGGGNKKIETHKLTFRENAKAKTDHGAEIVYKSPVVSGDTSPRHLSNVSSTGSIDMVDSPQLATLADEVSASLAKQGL
T1 sequence (P05067 672-713 limits assumed): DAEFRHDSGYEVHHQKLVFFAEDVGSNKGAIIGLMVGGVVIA
T3 sequence (P05067 672-713 limits assumed): as above

## Cc1cc2nc(/C=C/c3ccc(O)c(Br)c3)sc2cc1N(C)C [EU-005-02B, (E)-2-bromo-4-(2-(6-(dimethylamino)-5-methylbenzo[d]thiazol-2-yl)vinyl)phenol]
Aβ PFFs [1]
  Kd: 850 nM
[2]
  staining of senile plaques or NFT (Aβ, AT8 positive aggregates): barely co-stained with anti-AD or AT8 positive aggregate signals
[2]; listed as EU05-02B
  staining of senile plaques or NFT (Aβ, AT8 positive aggregates): did not stain senile plaques or NFT in AD
Tau PFFs [3]
  Kd: 3700 nM
[4]
  staining of senile plaques: barely recognized senile plaques or NFT
[5]
  staining of NFT: barely recognized senile plaques or NFT
[6]
  fluorescent signal in neurons with Aβ or Tau aggregates: negligible effects in neurons with Aβ or Tau aggregates
α-Syn PFFs
  binding to α-Syn PFFs by fluorescent emission intensity: stronger binding affinity toward α-Syn PFFs versus Tau and Aβ PFFs; also recorded: dose-dependent escalation of the emission intensities
α-Syn PFFs; listed as EU05-02B
  binding to α-Syn PFFs by fluorescent emission intensity: partial binding selectivity toward α-Syn PFFs versus Aβ and Tau fibrils
α-Syn PFFs; listed as EU-05-02B
  binding to α-Syn PFFs by fluorescent emission intensity: showed specific association with the PFFs
α-Syn PFFs; fluorescence spectroscopy titration, read-out: binding constant Kd for α-Syn PFFs
  Kd: 170 nM
α-Syn aggregated neurons
  fluorescent signal in α-Syn aggregated neurons: positive for selective binding
α-Syn aggregated neurons; listed as EU05-02B
  fluorescent signal in α-Syn aggregated neurons: positive signals in α-Syn aggregated neurons
[7]; Male ICH Mouse, 5 mg/kg IV, 0.50 h, 5 mg/kg
  B/P: 2.00 and 2.47 and 1.16
[7]; Male ICH Mouse, 5 mg/kg IV, 1.00 h, 5 mg/kg
  B/P: 2.72 and 6.12 and 4.48
[7]; Male ICH Mouse, 5 mg/kg IV, 2.00 h, 5 mg/kg
  B/P: 5.13 and 13.88 and 25.06
[7]; Male ICH Mouse, 5 mg/kg IV, 4.00 h, 5 mg/kg
  B/P: 29.74 and 5.63 and 21.06
[7]; Male ICH Mouse, 5 mg/kg IV, 8.00 h, 5 mg/kg
  B/P: 57.33 and 78.00 and 36.00
[7]; male, ICH, mouse, brain, iv, 5 mg/kg, Male ICH Mouse, 5 mg/kg IV, 0.50 h, read-out: B/P Mean
  Kp at 0.5 h: 1.88
[7]; male, ICH, mouse, brain, iv, 5 mg/kg, Male ICH Mouse, 5 mg/kg IV, 1.00 h, read-out: B/P Mean
  Kp at 1 h: 4.44
[7]; male, ICH, mouse, brain, iv, 5 mg/kg, Male ICH Mouse, 5 mg/kg IV, 2.00 h, read-out: B/P Mean
  Kp at 2 h: 14.7
[7]; male, ICH, mouse, brain, iv, 5 mg/kg, Male ICH Mouse, 5 mg/kg IV, 4.00 h, read-out: B/P Mean
  Kp at 4 h: 18.8
[7]; male, ICH, mouse, brain, iv, 5 mg/kg, Male ICH Mouse, 5 mg/kg IV, 8.00 h, read-out: B/P Mean
  Kp at 8 h: 57.1
[7]; mice, i.v. 5 mg/kg, result in words
  in vivo half-life / decay: long in vivo half-life
[7]; mice, result in words
  brain permeability: time-dependent escalation of B/P ratios; also recorded: brain permeability is much higher as compared to EU-005-02A
[7]; mice, result in words, listed as EU05-02B
  brain permeability: swiftly penetrated the brain and exhibited much higher brain permeability compared to EU05-02A
[8]
  staining of LBs and LNs: robust signals with LBs and LNs
[8]; listed as EU05-02B
  staining of LBs and LNs: robust signals with LBs and LNs in DLB and MSA patient brains
[9]
  staining of Lewy bodies (p-α-Syn S129 positive): concrete aggregates were also stained with the fluorescent signals from EU05-02B

## COc1ccc(/C=C/c2nc3cc(C)c(N(C)CCOCCF)cc3s2)cc1Br [compound 8, (E)-2-(3-bromo-4-methoxystyryl)-N-(2-(2-fluoroethoxy)ethyl)-N,5-dimethylbenzo[d]thiazol-6-amine]
[10]
  binding activity toward α-Syn PFFs: somehow interacted with both α-Syn and Aβ
Tau PFFs [11]
  binding toward Tau PFFs: not Tau fibrils
Aβ PFFs [12]
  binding toward Aβ PFFs: somehow interacted with both α-Syn and Aβ

## Cc1cc2nc(/C=C/c3ccc(OC(=O)N(C)C)c(Br)c3)sc2cc1N(C)CCOCCF [compound 13, (E)-2-bromo-4-(2-(6-((2-(2-fluoroethoxy)ethyl)(methyl)amino)-5-methylbenzo[d]thiazol-2-yl)vinyl)phenyl dimethylcarbamate]
[13]
  plasma concentration course: decreased in the plasma
[10]
  binding activity toward α-Syn PFFs: did not specifically interact with α-Syn, Aβ or Tau aggregates
Tau PFFs [11]
  binding toward Tau PFFs: did not specifically interact with α-Syn, Aβ or Tau aggregates
Aβ PFFs [12]
  binding toward Aβ PFFs: did not specifically interact with α-Syn, Aβ or Tau aggregates
